Laboratory results taken from patent US8926966B1 (Regents of the University of California, priority 1990, dated 2015).
Read-outs that look alike come from different tables or passages of the source.

Experiments:
spleen cells of NOD mice [1] = experiment: Spleen cell proliferation (recall response to antigens) after tolerization of NOD mice; format: cell-based, mouse; conditions: tested at 12 weeks; for Spleen Cell Proliferation (SI ± SEM) GAD: recall antigen GAD; for Spleen Cell Proliferation (SI ± SEM) GAD Peptides #17: recall antigen GAD peptide #17; for Spleen Cell Proliferation (SI ± SEM) GAD Peptides #34: recall antigen GAD peptide #34; for Spleen Cell Proliferation (SI ± SEM) GAD Peptides #35: recall antigen GAD peptide #35; for Spleen Cell Proliferation (SI ± SEM) hsp Peptide: recall antigen hsp peptide; for Spleen Cell Proliferation (SI ± SEM) β-Gal: recall antigen β-Gal
Procedure: Incorporation of label was measured by liquid scintillation counting.

NOD mice [2] = experiment: Insulitis score after tolerization of NOD mice; format: in vivo, mouse; conditions: examined at 12 weeks
NOD mice [3] = experiment: GAD immunization of 8 week old NOD mice, IDDM onset; format: in vivo, mouse; conditions: 25 ug i.p. in IFA at 8 weeks, again every 6 weeks
From the text: Breeder mice were purchased from Taconic Farms and housed under specific pathogen-free conditions. Only female NOD mice were used in this study. […] Insulitis is generally observed beginning at 4 weeks of age. […] The incidence of IDDM in female mice is 70-90% by one year of age.
Urine glucose levels were monitored twice weekly. After observing above normal glucose in urea, blood glucose levels were monitored twice weekly.

spleen cells of NOD mice [4] = experiment: Proliferative responses of NOD spleen cells to GAD peptides; format: cell-based, mouse; conditions: peptide 7 μM, 5-day culture
Procedure: The fine specificity of the anti-GAD T-cell response was mapped using a set of 38 peptides (numbered successively from the N-terminus) that were 20-23 amino acids (aa) long and span the entire GAD65 (Bu, et al., Proc. Natl. Acad. Sci., 89:2115-2119, 1992) sequence with 5aa overlaps (FIG. 10).
Peptides were present in cultures at 7 μM and the label was added during the last 16 hours of a 5-day culture. The peptides were synthesized using standard Fmoc chemistry and purified by reverse phase HPLC (Advanced Chemtech). The sequence of stimulatory peptides are shown below in Table 9.

[5] = system: IDDM associated autoantibodies in sera; experiment: ELISA of sera on plate-bound human GAD65 peptides; format: binding; conditions: for number of IDDM (at risk, pre-IDDM, at onset) patients positive (X) for the peptide (unlabelled sum line): IDDM sera of Table 11
In short: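 Blinded, coded sera (1/300) bound 1 h at 37 °C to wells coated overnight at 4 °C with peptides (20 ug/ml, pH 9.6), BSA-blocked. Detection with HRP-goat anti-human IgG (1/600), read at 410 nm; positive when sample/negative-control OD410 ≥3.0.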

splenic lymphocytes = experiment: ^3H-thymidine incorporation, splenic lymphocytes; format: cell-based
[6] = system: islet infiltrating T lymphocytes (IITLs); experiment: ^3H-thymidine incorporation, islet infiltrating T lymphocytes; format: cell-based
[7] = system: IDDM autoantibodies in sera of human patients; experiment: Autoantibody reactivity with ^35S labeled GAD65 segments (immunoprecipitation, SDS-PAGE); format: binding; conditions: IDDM patient sera of Table 10
From the text: Portions of human GAD65 cDNA were amplified by the polymerase chain reaction (PCR; Saiki, et al., Science, 239:487, 1988) to produce DNA segments encoding three polypeptide segments: amino acid residues 1-224 (segment A); 224-398 (segment B); and 398-585 (segment C). Each construct also contained a T7 promoter, a consensus sequence for the initiation of translation and an initiating methionine codon (Korak, M., J. Cell Biol., 108:229, 1989). Each PCR product was then trascribed in vitro with T7 RNA polymerase and translated in vitro in a rabbit reticulocyte cell-free system in the presence of ^35S-methionine, using conditions recommended by the supplier (Amersham Corp., Arlington Heights, Ill.). Each test serum (30 μl) was incubated with the resulting ^35S labeled-polypeptides. The bound peptides were isolated with PAS and analyzed by SDS-PAGE in 12% polyaacrylamide and autoradiography.

[8] = Table 8B: neonatal i.p. with IFA
[9] = Table 8C: i.v. at three weeks of age

β-Gal.: E. coli β-galactosidase, control antigen purified from recombinant bacteria [reference compound]
Spleen Cell Proliferation (SI ± SEM) CPH (spleen cells of NOD mice [1]; Table 8A: i.v. at 3 weeks, recall antigen CPH): 11.5 ± 0.9 SI | Spleen Cell Proliferation (SI ± SEM) GAD (spleen cells of NOD mice [1]; Table 8A: i.v. at 3 weeks): 15.4 ± 1.8 SI | Spleen Cell Proliferation (SI ± SEM) GAD Peptides #17 (spleen cells of NOD mice [1]; Table 8A: i.v. at 3 weeks): 5.1 ± 0.6 SI | Spleen Cell Proliferation (SI ± SEM) GAD Peptides #34 (spleen cells of NOD mice [1]; Table 8A: i.v. at 3 weeks): 5.1 ± 0.6 SI | Spleen Cell Proliferation (SI ± SEM) GAD Peptides #35 (spleen cells of NOD mice [1]; Table 8A: i.v. at 3 weeks): 4.0 ± 0.2 SI | Spleen Cell Proliferation (SI ± SEM) hsp Peptide (spleen cells of NOD mice [1]; Table 8A: i.v. at 3 weeks): 6.6 ± 0.5 SI | Spleen Cell Proliferation (SI ± SEM) β-Gal (spleen cells of NOD mice [1]; Table 8A: i.v. at 3 weeks): 1.1 ± 0.1 SI | Insultis Score (NOD mice [2]; Table 8A: female NOD mice, i.v. at 3 weeks of age, 50 μg (hsp-p 0.1 μg) in PBS, scale 0-4, mean ± SE): 2.6 ± 0.6 | mice that developed IDDM by 27 weeks in age (NOD mice [3]): 6/10 | mice remaining disease free at 52 weeks of age (NOD mice [3]; 10 mice per group): 2

IPPSLRTLEDNEERMSRLSK [Peptide 34]
age of NOD mice at first regularly detectable proliferative response (spleen cells of NOD mice [4]): 4 weeks | immunoreactivity of serum with GAD65 peptide ([5]; IDDM At Onset serum 048, 1/300 dilution): X (X = positive for immunoreactivity as defined by 00/background^3.0) | immunoreactivity of serum with GAD65 peptide ([5]; IDDM At Onset serum 291, 1/300 dilution): b (b = borderline response (00/background ?2.5-2.9).) | number of IDDM (at risk, pre-IDDM, at onset) patients positive (X) for the peptide (unlabelled sum line) [5]: 1

MKSMCPQAQLKVKYL [Poliovirus (SEQ ID NO. 4), reference compound]
^3H-THYMIDINE INCORPORATION (cpm) BY LYMPHOID CELL […] (splenic lymphocytes): 22,500 cpm | ^3H-THYMIDINE INCORPORATION (cpm) BY LYMPHOID CELL POPULATION IITLs [6]: 900 cpm

ARFKMFPEVKEKGMAA [GAD65 (SEQ ID NO. 5)]
^3H-THYMIDINE INCORPORATION (cpm) BY LYMPHOID CELL POPULATION SPLEEN (splenic lymphocytes; 1 × 10^5 cells/well, 5 days culture): 23,300 cpm | ^3H-THYMIDINE INCORPORATION (cpm) BY LYMPHOID CELL POPULATION IITLs ([6]; 3 × 10^4 cells/well, 5 days culture with irradiated spleen cells): 9,500 cpm | IITL proliferative response relative to culture media or polio polypeptide ([6]; IITL population): 9 fold

NMYAMMIARFKMFPEVKEKG [Peptide 17]
age of NOD mice at first regularly detectable proliferative response (spleen cells of NOD mice [4]): 5 weeks

SRLSKVAPVIKARMMEYGTT [Peptide 35]
age of NOD mice at first regularly detectable proliferative response (spleen cells of NOD mice [4]): 4 weeks | number of IDDM (at risk, pre-IDDM, at onset) patients positive (X) for the peptide (unlabelled sum line) [5]: 1 | immunoreactivity of serum with GAD65 peptide ([5]; Pre-IDDM serum 723, 1/300 dilution): X (X = positive for immunoreactivity as defined by 00/background^3.0)

EEILMHCQTTLKYAIKTGHP [Peptide 11]
Spleen Cell Proliferation (SI ± SEM) GAD (spleen cells of NOD mice [1]; [8]): 21.1 ± 2.2 SI | Spleen Cell Proliferation (SI ± SEM) GAD Peptides #17 (spleen cells of NOD mice [1]; [8]): 13.7 ± 1.5 SI | Spleen Cell Proliferation (SI ± SEM) GAD Peptides #34 (spleen cells of NOD mice [1]; [8]): 11.4 ± 1.5 SI | Spleen Cell Proliferation (SI ± SEM) GAD Peptides #35 (spleen cells of NOD mice [1]; [8]): 11.3 ± 0.7 SI | Spleen Cell Proliferation (SI ± SEM) hsp Peptide (spleen cells of NOD mice [1]; [8]): 13.3 ± 0.9 SI | Spleen Cell Proliferation (SI ± SEM) β-Gal (spleen cells of NOD mice [1]; [8]): 1.0 ± 0.1 SI | Spleen Cell Proliferation (SI ± SEM) GAD (spleen cells of NOD mice [1]; [9]): 12.1 ± 3.5 SI | Spleen Cell Proliferation (SI ± SEM) GAD Peptides #17 (spleen cells of NOD mice [1]; [9]): 6.9 ± 0.4 SI | Spleen Cell Proliferation (SI ± SEM) GAD Peptides #34 (spleen cells of NOD mice [1]; [9]): 6.4 ± 1.0 SI | Spleen Cell Proliferation (SI ± SEM) GAD Peptides #35 (spleen cells of NOD mice [1]; [9]): 6.8 ± 0.3 SI | Spleen Cell Proliferation (SI ± SEM) hsp Peptide (spleen cells of NOD mice [1]; [9]): 8.7 ± 0.9 SI | Spleen Cell Proliferation (SI ± SEM) β-Gal (spleen cells of NOD mice [1]; [9]): 1.4 ± 0.4 SI | Insultis Score (NOD mice [2]; Table 8B: neonatal female NOD mice, i.p. with IFA, scale 0-4): ≈2.5 | immunoreactivity of serum with GAD65 peptide ([5]; IDDM At Risk serum 825, 1/300 dilution): X (X = positive for immunoreactivity as defined by 00/background^3.0) | immunoreactivity of serum with GAD65 peptide ([5]; IDDM At Risk serum L.I., 1/300 dilution): b (b = borderline response (00/background ?2.5-2.9).) | number of IDDM (at risk, pre-IDDM, at onset) patients positive (X) for the peptide (unlabelled sum line) [5]: 2 | immunoreactivity of serum with GAD65 peptide ([5]; Pre-IDDM serum B.Y. (1), 1/300 dilution): X (X = positive for immunoreactivity as defined by 00/background^3.0) | immunoreactivity of serum with GAD65 peptide ([5]; Pre-IDDM serum J.B. (1), 1/300 dilution): b (b = borderline response (00/background ?2.5-2.9).) | immunoreactivity of serum with GAD65 peptide ([5]; Pre-IDDM serum J.B. (2), 1/300 dilution): b (b = borderline response (00/background ?2.5-2.9).) | immunoreactivity of serum with GAD65 peptide ([5]; Pre-IDDM serum R.S. (1), 1/300 dilution): b (b = borderline response (00/background ?2.5-2.9).) | immunoreactivity of serum with GAD65 peptide ([5]; Pre-IDDM serum R.S. (2), 1/300 dilution): b (b = borderline response (00/background ?2.5-2.9).)

Segment B: human GAD65 amino acid residues 224-398, in vitro translated, ^35S labeled
patients with antibodies reactive with the segment [7]: 41%

B1: Segment A: human GAD65 amino acid residues 1-224, in vitro translated, ^35S labeled (protein)
chain: MASPGSGFWSFGSEDGSGDSENPGTARAWCQVAQKFTGGIGNKLCALLYGDAEKPAESGGSQPPRAAARKAACACDQKPCSCSKVDVNYAFLHATDLLPACDGERPTLAFLQDVMNILLQYVVKSFDRSTKVIDFHYPNELLQEYNWELADQPQNLEEILMHCQTTLKYAIKTGHPRYFNQLSTGLDMVGLAADWLTSTANTNMFTYEIAPVFVLLEYVTLKKM
patients with antibodies reactive with the segment [7]: none

B2: Segment C: human GAD65 amino acid residues 398-585, in vitro translated, ^35S labeled (protein)
chain: MMGVPLQCSALLVREEGLMQNCNQMHASYLFQQDKHYDLSYDTGDKALQCGRHVDVFKLWLMWRAKGTTGFEAHVDKCLELAEYLYNIIKNREGYEMVFDGKPQHTNVCFWYIPPSLRTLEDNEERMSRLSKVAPVIKARMMEYGTTMVSYQPLGDKVNFFRMVISNPAATHQDIDFLIEEIERLGQDL
patients with antibodies reactive with the segment [7]: 27%
